Reference: patent publication US20120165319A1, “INHIBITORS OF INTERLEUKIN-1 BETA CONVERTING ENZYME” (VERTEX PHARMACEUTICALS INCORPORATED, priority 1995, published 2012)

Experiments:
[1] = biological target: T1, TX (Homo sapiens, UniProt P49662); assay: Inhibition of ICE homologs: TX; assay type: biochemical; settings: for Ki: ICE substrate, conditions identical to ICE (Table 1); for kinact (TX): second-order rate constant for inactivation, irreversible inhibitors (Table 2)
T1 construct: made in house; host or cells: Spodoptera frugiperda (Sf9) insect cells, recombinant baculovirus (pVL1393/TX)
T1 sequence (P49662 81-270 limits assumed): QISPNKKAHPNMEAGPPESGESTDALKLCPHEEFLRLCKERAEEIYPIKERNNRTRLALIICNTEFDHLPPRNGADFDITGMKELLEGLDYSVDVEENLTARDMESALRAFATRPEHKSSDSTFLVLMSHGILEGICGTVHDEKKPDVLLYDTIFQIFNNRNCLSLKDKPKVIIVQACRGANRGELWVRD
T1 sequence (P49662 290-377 limits assumed): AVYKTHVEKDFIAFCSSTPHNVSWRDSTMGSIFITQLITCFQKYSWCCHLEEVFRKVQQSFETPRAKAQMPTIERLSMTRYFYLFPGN
Description: Expression of TX in insect cells using a baculovirus expression system. We have subcloned Tx cDNA (Faucheu et al., supra 1995) into a modified pVL1393 transfer vector, co-transfected the resultant plasmid (pVL1393/TX) into insect cells with viral DNA and identified the recombinant baculovirus. After the generation of high titer recombinant virus stock, the medium was examined for TX activity using the visible ICE assay. […] ICE was used as a standard in the assay.
(§1) The selectivity of a panel of reversible inhibitors for ICE homologs is depicted in Table 1. ICE enzyme assays were performed according to Wilson et al (supra 1994) using a YVAD-AMC substrate (Thornberry et al, supra 1992). Assay of TX activity was performed using the ICE substrate under identical conditions to ICE. Assay of CPP32 was performed using a DEVD-AMC substrate (Nicholson et al., supra 1995). In general, there is low selectivity between ICE and TX for a wide range of scaffolds. None of the synthetic ICE compounds tested are effective inhibitors of CPP32.
(§2) Second-order rate constants for inactivation of ICE and ICE homologs with selected irreversible inhibitors are presented below (Table 2). The irreversible compounds studied are broad spectrum inhibitors of ICE and its homologs. Some selectivity, however, is observed with the irreversible compounds comparing inhibition of ICE and CPP32.

[2] = biological target: T2, CPP32 (Homo sapiens, UniProt P42574); assay: Inhibition of ICE homologs: CPP32 (DEVD-AMC substrate); settings: for kinact (CPP32): second-order rate constant for inactivation, irreversible inhibitors (Table 2)
T2 sequence (P42574 29-175 limits assumed): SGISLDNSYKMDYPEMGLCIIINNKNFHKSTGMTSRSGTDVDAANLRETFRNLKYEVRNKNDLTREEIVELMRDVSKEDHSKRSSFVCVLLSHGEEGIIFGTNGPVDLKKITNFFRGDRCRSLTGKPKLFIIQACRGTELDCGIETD
T2 sequence (P42574 176-277 limits assumed): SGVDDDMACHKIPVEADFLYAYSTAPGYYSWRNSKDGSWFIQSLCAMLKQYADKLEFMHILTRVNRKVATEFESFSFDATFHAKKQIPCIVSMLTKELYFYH

[3] = biological target: T3, ICE (Homo sapiens, UniProt P29466); assay: Enzyme assay with fluorescent substrate (Acetyl-Tyr-Val-Ala-Asp-AMC); Ki and second order rate constants kinact; assay type: biochemical; settings: for kinact (ICE): second-order rate constant for inactivation, irreversible inhibitors (Table 2)
T3 sequence (P29466 120-297 limits assumed): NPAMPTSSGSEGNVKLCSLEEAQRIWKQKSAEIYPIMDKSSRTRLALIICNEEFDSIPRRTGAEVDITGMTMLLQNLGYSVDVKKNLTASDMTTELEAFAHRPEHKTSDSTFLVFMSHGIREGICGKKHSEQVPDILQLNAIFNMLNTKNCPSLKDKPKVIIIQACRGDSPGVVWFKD
T3 sequence (P29466 317-404 limits assumed): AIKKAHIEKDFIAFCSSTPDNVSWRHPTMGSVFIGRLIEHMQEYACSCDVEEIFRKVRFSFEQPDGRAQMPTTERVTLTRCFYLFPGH
Experimental: 2. Enzyme Assay with Fluorescent Substrate
This assay is run essentially according to Thornberry et al. (Nature 356: 768-774 (1992)), using substrate 17 referenced in that article. The substrate is: Acetyl-Tyr-Val-Ala-Asp-amino-4-methylcoumarin (AMC). The following components are mixed:
The assay is run in a 96 well microtiter plate. Buffer and ICE are added to the wells. The components are left to incubate at 37° C. for 15 minutes in a temperature-controlled wellplate. After the 15 minute incubation, the reaction is started by adding substrate directly to the wells and the reaction is monitored @37° C. for 30 minutes by following the release of the AMC fluorophore using an excitation wavelength for 380 nm and an emission wavelength of 460 nm. A linear fit of the data for each well is performed and a rate is determined in fluorescence units per second.
For determination of enzyme inhibition constants (Ki) or the mode of inhibition (competitive, uncompetitive or noncompetitive), the rate data determined in the enzyme assays at varying inhibitor concentrations are computer-fit to standard enzyme kinetic equations (see I. H. Segel, Enzyme Kinetics, Wiley-Interscience, 1975).
The determination of second order rate constants for irreversible inhibitors was performed by fitting the fluorescence vs time data to the progress equations of Morrison. Morrison, J. F., Mol. Cell. Biophys., 2, pp. 347-368 (1985). Thornberry et al. have published a description of these methods for measurement of rate constants of irreversible inhibitors of ICE. Thornberry, N. A., et al. Biochemistry, 33, pp. 3923-3940 (1994). For compounds where no prior complex formation can be observed kinetically, the second order rate constants (kinact) are derived directly from the slope of the linear plots of kobs vs. [I]. For compounds where prior complex formation to the enzyme can be detected, the hyperbolic plots of kobs vs. [I] are fit to the equation for saturation kinetics to first generate Ki and k′. The second order rate constant kinact is then given by k′/Ki.
as §1, §2

[4] = tested on: U937 cells; assay: Fas-induced apoptosis in U937 cells; settings: Homo sapiens; for inhibition at 20 µM: U-937, read-out: Inhibition of apoptosis
Experimental: Fas-Induced Apoptosis in U937 cells. Compounds were evaluated for their ability to block anti-Fas-induced apopotosis. […] We used this cell line for apoptosis studies. U937 cells were seeded in culture at 1×10^5 cells/ml and grown to ˜5×10^6 cells/ml. For apoptosis experiments, 2×10^6 cells were plated in 24-well tissue culture plates in 1 ml RPMI-1640-10% FBS and stimulated with 100 ng/ml anti-Fas antigen antibody (Medical and Biological Laboratories, Ltd.). After a 24 hr incubation at 37° C., the percentage of apoptotic cells was determined by FACS analysis using ApoTag reagents.

How did the Ki [1] turn out when `O=C(O)C[C@H](NC(=O)[C@@H]1CCCN2C(=O)CC[C@H](NC(=O)CCc3ccccc3)C(=O)N12)C(=O)CSCc1ccccc1Cl` [Compound 125b, [3S(1S,9S)]-3-(6,10-dioxo-1,2,3,4,7,8,9,10-octahydro)-9-(3-phenylpropionyl-amino)-6H-pyridazine[1,2-a][1,2]diazepine-1-carboxamido-5-(2-chlorophenyl-methylthio)-4-oxopentanoic acid] was run?
Its Ki is 57 ± 13 nM.

And the Ki [2]?
Its Ki is > 1000 nM.

Which “Fluorescent Assay kinact” value ([3]; Table 6) does the source give for `O=C(O)C[C@H](NC(=O)[C@@H]1CCCN2C(=O)CC[C@H](NC(=O)c3ccccc3)C(=O)N12)C(=O)CSc1nnnn1-c1ccccc1` [Compound 280, [3S(1S,9S)]3-(9-Benzoylamino-6,10-dioxo-1,2,3,4,7,8,9,10-octahydro-6H-pyridazino[1,2-a][1,2]diazepine-1-carboxamido)-4-oxo-5(1-phenyl-1H-tetrazole-5-thio)pentanoic acid] here?
Its value is 4 × 10^5 m^−1 s^−1.

How did the “Fluorescent Assay kinact” value ([3]; Table 6) turn out when `O=C(O)C[C@H](NC(=O)[C@@H]1CCCN2C(=O)CC[C@H](NC(=O)OCc3ccccc3)C(=O)N12)C(=O)COC(=O)c1c(Cl)cccc1Cl` [Compound 217d, [3S(1S,9S)]3-(9-Benzyloxycarbonylamino-6,10-dioxo-1,2,3,4,7,8,9,10-octahydro-6H-pyridazino[1,2-a][1,2]-diazepine-1-carboxamido)-5-(2,6-dichlorobenzoyloxy)-4-oxopentanoic acid] was run?
Its value is 4.7 × 10^5 m^−1 s^−1.

What about the “kinact (ICE)” value [3] of the same compound?
Its value is 475,000 M^−1 s^−1.

And the “kinact (TX)” value [1]?
Its value is 250,000 M^−1 s^−1.

And the “kinact (CPP32)” value [2]?
Its value is 150,000 M^−1 s^−1.

Which “Fluorescent Assay kinact” value ([3]; Table 18) does the source give for “[3S(1S,9S)]3-[(6,10-Dioxo-9-(methanesulphonylamino)-1,2,3,4,7,8,9,10-octahydro-6H-pyridazino[1,2-a][1,2]diazepine-1-carboxamido]-5-(5-methyl-3-phenylisoxazoyloxy)-4-oxopentanoic acid [505 b]” here?
The value was 190000 m^−1 s^−1.

With `O=C(O)C[C@H](NC(=O)[C@@H]1CCCN2C(=O)CC[C@H](NC(=O)c3ccccc3)C(=O)N12)C(=O)COc1cccnc1` [Compound 283, [3S(1S,9S)]3-[9-Benzoylamino-6,10-dioxo-1,2,3,4,7,8,9,10-octahydro-6H-pyridazino[1,2-a][1,2]diazepine-1-carboxamido]-4-oxo-5-(3-pyridyloxy)pentanoic acid] as the compound, how does the “Fluorescent Assay kinact” value ([3]; Table 6) read?
Its value is 1 × 10^5 m^−1 s^−1.

For `COC(=O)N[C@H]1CCC(=O)N2CCC[C@@H](C(=O)N[C@@H](CC(=O)O)C(=O)COC(=O)c3c(Cl)cccc3Cl)N2C1=O` [Compound 284, [3S(1S,9S)]5-(2,6-Dichlorobenzoyloxy)-3-[6,10-dioxo-9-(methoxycarbonyl)amino-1,2,3,4,7,8,9,10-octahydro-6H-pyridazino[1,2-a][1,2]diazepine-1-carboxamido]-4-oxopentanoic acid], which “Fluorescent Assay kinact” value ([3]; Table 6) is on record?
Its value is 3.5 × 10^5 m^−1 s^−1.

`O=C(O)C[C@H](NC(=O)[C@@H]1CCCN2C(=O)CC[C@H](NC(=O)CCc3ccccc3)C(=O)N12)C(=O)c1ncc(-c2c(Cl)cccc2Cl)o1` [Compound 137] was tested. Which Ki [1] did it give?
The Ki was 40 ± 7 nM.

What about the Ki [2] of the same compound?
Its Ki is > 1000 nM.

Which results are given for `COc1cccc2nc(C(=O)[C@H](CC(=O)O)NC(=O)[C@@H]3CCCN4C(=O)CC[C@H](NC(=O)CCc5ccccc5)C(=O)N34)oc12` [Compound 135a]?
Ki [1]: 55 ± 9 nM; Ki [2]: > 1000 nM

`CS(=O)(=O)N[C@H]1CCC(=O)N2CCC[C@@H](C(=O)N[C@@H](CC(=O)O)C(=O)COC(=O)c3sccc3Cl)N2C1=O` [505 e, [3S(1S,9S)]5-(3-Chlorothien-2-oyloxy)-3-(6,10-dioxo-9-methanesulphonylamino-1,2,3,4,7,8,9,10-octahydro-6H-pyridazino[1,2-a][1,2]diazepine-1-carboxamido)-4-oxopentanoic acid] was tested. Which “Fluorescent Assay kinact” value ([3]; Table 18) did it give?
The value was 420000 m^−1 s^−1.

For `O=C(O)C[C@H](NC(=O)[C@@H]1CCCN2C(=O)CC[C@H](NC(=O)c3ccccc3)C(=O)N12)C(=O)COC(=O)c1c(Cl)cccc1Cl` [Compound 217e, [3S(1S,9S)]3-(9-Benzoylamino-6,10-dioxo-1,2,3,4,7,8,9,10-octahydro-6H-pyridazino[1,2-a][1,2]-diazepine-1-carboxamido)-5-(2,6-dichlorobenzoyloxy)-4-oxopentanoic acid], which IC50 ([4]; U-937, 24 h, read-out: IC50, anti-Fas-induced apoptosis) is on record?
Its IC50 is 800 nM.

`CS(=O)(=O)N[C@H]1CCC(=O)N2CCC[C@@H](C(=O)N[C@@H](CC(=O)O)C(=O)COC(=O)c3cccc4ccccc34)N2C1=O` [Compound 286, [3S(1S,9S)]3-(6,10-Dioxo-9-methanesulphonylamino-1,2,3,4,7,8,9,10-octahydro-6H-pyridazino[1,2-a][1,2]diazepine-1-carboxamido)-5-(1-naphthoyloxy)-4-oxopentanoic acid] was tested. Which “Fluorescent Assay kinact” value ([3]; Table 18) did it give?
The value was 370000 m^−1 s^−1.

What does the source list for `O=C(O)C[C@H](NC(=O)[C@@H]1CCCN2C(=O)CC[C@H](NC(=O)CCc3ccccc3)C(=O)N12)C(=O)COC(=O)c1c(Cl)cccc1Cl` [Compound 136]?
Fluorescent Assay kinact ([3]; Table 6): 5.4 × 10^5 m^−1 s^−1; inhibition at 20 µM [4]: > 75%

How did the “Fluorescent Assay kinact” value ([3]; Table 6) turn out when `COC(=O)N[C@H]1CCC(=O)N2CCC[C@@H](C(=O)N[C@@H](CC(=O)O)C(=O)COC(=O)c3c(C)cccc3C)N2C1=O` [Compound 285, [3S(1S,9S)]5-(2,6-Dimethylbenzoyloxy)-3-[6,10-dioxo-9-(methoxycarbonyl)amino-1,2,3,4,7,8,9,10-octahydro-6H-pyridazino[1,2-a][1,2]diazepine-1-carboxamido]-4-oxopentanoic acid] was run?
Its value is 4.3 × 10^5 m^−1 s^−1.

Which “Fluorescent Assay kinact” value ([3]; Table 6) does the source give for `CS(=O)(=O)N[C@H]1CCC(=O)N2CCC[C@@H](C(=O)N[C@@H](CC(=O)O)C(=O)COC(=O)c3c(Cl)cccc3Cl)N2C1=O` [Compound 138] here?
Its value is 1.2 × 10^5 m^−1 s^−1.

What about the “kinact (ICE)” value [3] of the same compound?
Its value is 120,000 M^−1 s^−1.

What about the “kinact (TX)” value [1] of the same compound?
The value was 150,000 M^−1 s^−1.

What about the “kinact (CPP32)” value [2] of the same compound?
The value was 550,000 M^−1 s^−1.

What about the inhibition at 20 µM [4] of the same compound?
The inhibition at 20 µM was > 75%.
